Data reported in patent US10322143B2, “Inhibitors of ADAMTS4 or ADAMTS5 for use in preventing or treating cardiac remodeling and chronic heart failure” (Universitetet i Oslo, priority 2013, dated 2019).

Tested on: ADAMTS5 mRNA
Assay: ADAMTS5 mRNA level (qRT-PCR) in MI rats
Format: in vivo, rat
Settings: PPS-treatment
Description: At day 0 to 3 (median 2) after surgery, infarct size was quantified by echocardiography using the Vevo2100 system (Visualsonics Inc, Canada) and magnetic resonance imaging (MRi) using a 9.4 T/210 mm/ASR horizontal bore magnet (Agilent Technologies, Inc., USA). Initially, echocardiography was performed to select moderate to large infarcts ranging approximately 40 to 50%. Thereafter, infarct sizes were exactly measured by late-enhancement gadolinium MRi analyses (Bohl S., et al. American Journal of Physiology, 2009; 296 (4): H1200-H1208) and stratified into small infarcts (stratum 1: <43%, stratum 2: 43-48%), and large infarcts (stratum 3: 48-53%, stratum 4: >53%). The rats in each MI stratum and sham group were randomized to receive intervention or control treatment. The intervention group was treated with 6 mg/kg of sodium PPS (Interfarm AS, Norway), while the control group received vehicle (0.9% NaCl), both injected subcutaneously every third day starting from post-operative day 8-10.
The mRNA levels of the ADAMTS versicanases ADAMTS1, -4, -5, -8, and -20 (Shiomi T, et al. Pathology International 2010; 60(7):477-96), versican, aggrecan, syndecan-4, tissue inhibitor metalloprotease (TIMP)-3, and membrane-type (MT)4-MMP, were quantified in rat left ventricle by qRT-PCR, as previously described in Example 1.

## pentosan polysulfate [PPS]
  ADAMTS5 mRNA levels: decreased
